Experimental data: patent US20220031871A1, “ANTIBODIES FOR CHELATED RADIONUCLIDES AND CLEARING AGENTS” (Hoffmann-La Roche Inc., priority 2018, published 2022)

Experiments:
s.c. BxPC3 tumors [1] = assay: Protocol 146: ^212Pb-DOTAM distribution after PRIT, 5 min to 48 h; assay type: in vivo, SCID mice
Description: Protocol 146 was designed to provide in vivo ^212Pb-DOTAM distribution data after PRIT for estimations of the absorbed radioactive dose to tumor and normal tissues, in SCID mice carrying s.c. BxPC3 tumors. The quenching of ^212Pb-DOTAM was performed using Ca (see example 34).
Pretargeting was performed by injection of CEA-DOTAM BsAb, followed 7 days later by the CA. After 24 hours, the ^212Pb-DOTAM was administered. Groups of mice were sacrificed at multiple time points from 5 minutes to 48 hours after the radioactive injection, and blood and organs harvested for radioactive measurement. […] Absorbed doses were finally calculated through established methods using the resulting time-activity curves. […]
Mice in group E and F were individually housed (i.e. one mouse per cage) in grilled-floor metabolic cages. Urine and feces were collected from each cage 2, 6, and 24 hours after the radioactive injection, and the individual samples subsequently measured for radioactivity. […]
Blood/serum was collected from all mice through retro-orbital bleeding before termination. After euthanasia, the following additional organs and tissues were harvested for radioactivity measurement and calculation of % ID/g: bladder, uterus, small intestine, colon, spleen, pancreas, kidneys, stomach, liver, lung, heart, brain, femoral bone, skin, muscle, abdominal fat, tail, and tumor.

s.c. BxPC3 tumors [2] = assay: Protocol 146: radiation dosimetry (absorbed doses, MIRD); assay type: in vivo, SCID mice; details: for Mean absorbed dose, RBE = 1 / Mean absorbed dose, RBE = 5: 20 μCi, pretargeted, tumor-bearing SCID
Description: Absorbed doses were calculated following the formalism outlined in Pamphlet No. 21 from the Medical Internal Radiation Dose (MIRD) Committee (Bolch W E, Eckerman K F, Sgouros G, and Thomas S R. J Nucl Med 2009; 50:477-484). Formally, the absorbed dose D(rT) in a target tissue or region rT is calculated as the time-integral of the activity A(rs,t) multiplied by the absorbed dose rate per unit activity S(rT←rs) summed over all source regions rs. Given that the vast majority of energy released by the ^212Pb decay chain comes from alpha radiation and furthermore by the much higher biological effectiveness of alpha radiation (as characterized by the relative biological effectiveness, RBE) two approximations were made: • 1. the energy is absorbed locally due to the short range of the alpha particles, which means that only the term s(rT←rT) is Considered, and • 2. the contribution from beta and gamma radiation is neglected.
With Δα being the energy released by alpha decays, or rather the sum of the mean energies released by alpha decays in the decay chain of ^212Pb, here expressed in units […], the absorbed dose in a target tissue or region rT is calculated by the formula: […]
The calculations are based on the composite (average) decay-corrected radioactive concentration at time t, expressed as [% ID^t/g]t. In a first step, these are transformed into radioactive concentrations as μCi per kg tissue weight for the target tissue rT:
AQ[μCi] is the injected activity and λ is the exponential decay rate for ^212Pb, 0.0651 h^−1 (corresponding to the 10.6-hour half-life).
In a second step, the radioactive concentration was integrated over time for each tissue. This was achieved using the “Linear Log Trapezoidal calculation method” in the pharmacokinetic software Phoenix WinNonlin 6.4 (Certara USA, Inc., 100 Overlook Center, Suite 101, Princeton, N.J. 08540 USA). The model type “Plasma” was used with uniform weighting.
In the final step, absorbed doses were calculated by multiplying the time integrals of the radioactive concentration by the energy release Δα=170·10^−6J/(μCi·h).
The mean absorbed doses in Gy calculated for protocol 146 are shown in Table 24, both as absolute values (RBE=1) and corrected for the higher cytotoxicity of alpha emitters (RBE=5).

For `NC(=O)CN1CCN(CC(N)=O)CCN(CC(N)=O)CCN(CC(N)=O)CC1.[212Pb+2]` [^212Pb-DOTAM], the “accumulation of radioactivity in tumor” value (s.c. BxPC3 tumors [1]; 5 minutes after injection, pretargeted by CEA-DOTAM BsAb, CA) was 17 % ID/g, the “accumulation of radioactivity in tumor” value (s.c. BxPC3 tumors [1]; by 6 hours p.i., remaining for at least 48 hours) was “over 40%” and the “absorbed dose in most normal tissues, except bladder” value (s.c. BxPC3 tumors [2]; 20 μCi ^212Pb-DOTAM, RBE=1) was “below 2 Gy”. The “Mean absorbed dose, RBE = 1” value (s.c. BxPC3 tumors [2]; Abdominal fat) was 1.25 Gy, the “Mean absorbed dose, RBE = 5” value (s.c. BxPC3 tumors [2]; Abdominal fat) was 6.25 Gy and the “Mean absorbed dose, RBE = 1” value (s.c. BxPC3 tumors [2]; Bladder) was 6.53 Gy. For the same compound, the “Mean absorbed dose, RBE = 5” value (s.c. BxPC3 tumors [2]; Bladder) was 32.64 Gy, the “Mean absorbed dose, RBE = 1” value (s.c. BxPC3 tumors [2]; Blood) was 0.72 Gy and the “Mean absorbed dose, RBE = 5” value (s.c. BxPC3 tumors [2]; Blood) was 3.60 Gy. For the same compound, the “Mean absorbed dose, RBE = 1” value (s.c. BxPC3 tumors [2]; Brain) was 0.04 Gy, the “Mean absorbed dose, RBE = 5” value (s.c. BxPC3 tumors [2]; Brain) was 0.19 Gy and the “Mean absorbed dose, RBE = 1” value (s.c. BxPC3 tumors [2]; Colon) was 0.43 Gy. For the same compound, the “Mean absorbed dose, RBE = 5” value (s.c. BxPC3 tumors [2]; Colon) was 2.17 Gy, the “Mean absorbed dose, RBE = 1” value (s.c. BxPC3 tumors [2]; Femoral bone) was 0.27 Gy and the “Mean absorbed dose, RBE = 5” value (s.c. BxPC3 tumors [2]; Femoral bone) was 1.33 Gy. The “Mean absorbed dose, RBE = 1” value (s.c. BxPC3 tumors [2]; Heart) was 0.33 Gy, the “Mean absorbed dose, RBE = 5” value (s.c. BxPC3 tumors [2]; Heart) was 1.63 Gy and the “Mean absorbed dose, RBE = 1” value (s.c. BxPC3 tumors [2]; Kidneys) was 1.43 Gy. For the same compound, the “Mean absorbed dose, RBE = 5” value (s.c. BxPC3 tumors [2]; Kidneys) was 7.14 Gy, the “Mean absorbed dose, RBE = 1” value (s.c. BxPC3 tumors [2]; Liver) was 0.22 Gy and the “Mean absorbed dose, RBE = 5” value (s.c. BxPC3 tumors [2]; Liver) was 1.09 Gy. For the same compound, the “Mean absorbed dose, RBE = 1” value (s.c. BxPC3 tumors [2]; Lung) was 1.34 Gy, the “Mean absorbed dose, RBE = 5” value (s.c. BxPC3 tumors [2]; Lung) was 6.69 Gy and the “Mean absorbed dose, RBE = 1” value (s.c. BxPC3 tumors [2]; Muscle) was 0.29 Gy. The “Mean absorbed dose, RBE = 5” value (s.c. BxPC3 tumors [2]; Muscle) was 1.47 Gy, the “Mean absorbed dose, RBE = 1” value (s.c. BxPC3 tumors [2]; Pancreas) was 0.36 Gy and the “Mean absorbed dose, RBE = 5” value (s.c. BxPC3 tumors [2]; Pancreas) was 1.80 Gy. The “Mean absorbed dose, RBE = 1” value (s.c. BxPC3 tumors [2]; Serum) was 1.64 Gy, the “Mean absorbed dose, RBE = 5” value (s.c. BxPC3 tumors [2]; Serum) was 8.20 Gy and the “Mean absorbed dose, RBE = 1” value (s.c. BxPC3 tumors [2]; Skin) was 0.47 Gy. For the same compound, the “Mean absorbed dose, RBE = 5” value (s.c. BxPC3 tumors [2]; Skin) was 2.33 Gy, the “Mean absorbed dose, RBE = 1” value (s.c. BxPC3 tumors [2]; Small intestine) was 0.22 Gy and the “Mean absorbed dose, RBE = 5” value (s.c. BxPC3 tumors [2]; Small intestine) was 1.08 Gy. The “Mean absorbed dose, RBE = 1” value (s.c. BxPC3 tumors [2]; Spleen) was 0.27 Gy, the “Mean absorbed dose, RBE = 5” value (s.c. BxPC3 tumors [2]; Spleen) was 1.36 Gy and the “Mean absorbed dose, RBE = 1” value (s.c. BxPC3 tumors [2]; Stomach) was 0.24 Gy. The “Mean absorbed dose, RBE = 5” value (s.c. BxPC3 tumors [2]; Stomach) was 1.20 Gy, the “Mean absorbed dose, RBE = 1” value (s.c. BxPC3 tumors [2]; Tail) was 0.54 Gy and the “Mean absorbed dose, RBE = 5” value (s.c. BxPC3 tumors [2]; Tail) was 2.69 Gy. For the same compound, the “Mean absorbed dose, RBE = 1” value (s.c. BxPC3 tumors [2]; Tumor (BxPC3)) was 19.91 Gy, the “Mean absorbed dose, RBE = 5” value (s.c. BxPC3 tumors [2]; Tumor (BxPC3)) was 99.55 Gy and the “Mean absorbed dose, RBE = 1” value (s.c. BxPC3 tumors [2]; Uterus) was 0.61 Gy. For the same compound, the “Mean absorbed dose, RBE = 5” value (s.c. BxPC3 tumors [2]; Uterus) was 3.04 Gy.
